Experimental data: patent US8815829B2, “3′-azido purine nucleotide prodrugs for treatment of viral infections” (priority 2008, dated 2014)
Read-outs that look alike come from different tables or passages of the source. One block for each compound: values may come before it.

Assays:
[1] = tested on: CEM cells; assay: Cytotoxicity assay in CEM cells; type: cell-based, human; settings: Homo sapiens, CCRF-CEM; Table 5; read-out: Toxicity IC50 CEM
[2] = tested on: Vero cells; assay: Cytotoxicity assay in Vero cells; type: cell-based; settings: Chlorocebus sabaeus, Vero, read-out: Toxicity IC50 Vero
[3] = tested on: HSV-1; assay: HSV-1 drug susceptibility assay; type: cell-based; settings: Human alphaherpesvirus 1
Text: (§1) Agents Chemother. […] K., Otto, M. J., Schinazi, R. F. “Antiviral activities and cellular toxicities of modified 2′,3′-dideoxy-2′,3′-didehydrocytidine analogs” Antimicrob. Agents Chemother. 2002, 46, 3854-60. • ^cHSV-1 drug susceptibility assay was done as previously described in: Schinazi, R. F., Peters, J., Williams, C. C., Chance, D., Nahmias, A. J. “Effect of combinations of acyclovir with vidarabine or its 5′-monophosphate on herpes simplex virus in cell culture and in mice.” Antimicrob. Agents Chemother. 1982, 22, 499-507. • ^dHCV Replicon Assay^1: Huh 7 Clone B cells containing HCV Replicon RNA were seeded in a 96-well plate at 5000 cells/well, and the compounds were tested at 10 μM in triplicate immediately after seeding. Following five days incubation (37° C., 5% CO2), total cellular RNA was isolated by using versaGene RNA purification kit from Gentra. Replicon RNA and an internal control (TaqMan rRNA control reagents, Applied Biosystems) were amplified in a single step multiplex Real Time RT-PCR Assay. The antiviral effectiveness of the compounds was calculated by subtracting the threshold RT-PCR cycle of the test compound from the threshold RT-PCR cycle of the no-drug control (ΔCtHCV). A ΔCt of 3.3 equals a 1-log reduction (equal to 90% less starting material) in Replicon RNA levels. The cytotoxicity of the compounds was also calculated by using the ΔCt rRNA values. 77 (2′-Me-C) was used as the control. To determine EC90 and IC50 values^2, ΔCt: values were first converted into fraction of starting material^3 and then were used to calculate the % inhibition.

[4] = tested on: PBM cells; assay: Cytotoxicity assay in PBM cells; type: cell-based, human; settings: Homo sapiens, PBMC; Table 5; read-out: Toxicity IC50 PBM
[5] = tested on: HCV Replicon RNA; assay: HCV Replicon Assay (Huh 7 Clone B cells); type: cell-based; settings: Hepatitis C virus, Huh-7, 120 h, tested at 10 μM, five days
Text: as §1

[6] = tested on: MT-2 cells; assay: Intracellular nucleotides formed in MT-2 cells; type: in vitro ADME
[7] = tested on: adenosine deaminase; assay: Adenosine deaminase assay (deamination of nucleosides); type: in vitro ADME; settings: 50 μM, pH 7.4
Method: In order to determine if these 6-substituted compounds are converted to G analogs by the enzyme adenosine deaminase, a series of enzyme kinetics experiments were undertaken.
To determine the propensity for deamination of the APN nucleosides by adenosine deaminase, nucleoside compounds were incubated with the commercially available purified enzyme, and the reaction was followed spectrophotometrically. Reaction conditions were 50 mM potassium phosphate, pH 7.4, with 50 μM APN nucleoside in 0.5 mL at 25° C. Reaction time was 7 minutes with 0.002 units of enzyme and 120 minutes with 0.2 units of enzyme. (The unit definition of adenosine deaminase is one unit will deaminate 1.0 μmol of adenosine to inosine per minute at pH 7.5 at 25° C.) Deoxyadenosine was the positive control which was 59% deaminated under the given conditions in 7 minutes with 0.002 units of enzyme. Deoxyguanosine was the negative control. Optical density was measured at 265 nm or 285 nm. The difference in optical density between the beginning and the end of the experiment was divided by the extinction coefficient then multiplied by the volume of the reaction to determine the number of mols of substrate transformed into product. Mols of product were divided by mols of substrate equivalent to a 100% complete reaction then multiplied by 100 to obtain percent deamination. The limit of detection was 0.001 optical density units.

[8] = tested on: PBM cells; settings: human, 4 h, 50 μM
[9] = tested on: HBV; assay: Anti-HBV assay (AD-38 cell line); type: cell-based; settings: Hepatitis B virus
Method: The anti-HBV activity of the compounds was determined by treating the AD-38 cell line carrying wild type HBV under the control of tetracycline (see Ladner S. K., Otto M. J., Barker C. S., Zaifert K., Wang G. H., Guo J. T., Seeger C. & King R. W. Antimicrob. Agents Chemother. 1997, 41, 1715-20). Removal of tetracycline from the medium [Tet (−)] results in the production of HBV. The levels of HBV in the culture supernatant fluids from cells treated with the compounds were compared with that of the untreated controls. Control cultures with tetracycline [Tet (+)] were also maintained to determine the basal levels of HBV expression.

[10] = tested on: HIV-2/pROD10; assay: HIV-2 drug susceptibility in PBM cells; type: cell-based; settings: Human immunodeficiency virus 2, PBMC
[11] = tested on: HIV-1/LAI; assay: Anti-HIV-1 assay in PBM cells; type: cell-based; settings: Human immunodeficiency virus 1, PBMC, PBM cells; read-out: HIV-1/LAI (PBM) EC90
Method: Stock solutions (20-40 mM) of the compounds were prepared in sterile DMSO and then diluted to the desired concentration in growth medium. Cells were infected with the prototype HIV-1LAI at a multiplicity of infection of 0.01. Virus obtained from the cell supernatant was quantified on day 6 after infection by a reverse transcriptase assay using (rA)n·(dT)12-18 as template-primer. […] The antiviral EC50 and EC90 were obtained from the concentration-response curve using the median effective method described previously (see Chou T.-C. & Talalay P. Adv. Enzyme Regul. 1984, 22, 27-55; Belen'kii M. S. & Schinazi R. F. Antiviral Res. 1994, 25, 1-11).

[12] = tested on: HIV-1 AZT7 (M41L/D67N/K70R/T215F/K219Q); assay: microbe, parasite or virus in culture; type: cell-based; settings: Human immunodeficiency virus 1; P4/R5 cells, mean ± standard deviation
Method: (§2) In a 96-well plate, two- or three-fold serial dilutions of an inhibitor were added to P4/R5 cells in triplicate. […] At 48 h post-infection, a cell lysis buffer and luminescent substrate (Gal-Screen; Tropix/Applied Biosystems) was added to each well, and relative light unit values were determined using a luminometer (ThermoLabSystems, Waltham, Mass.).
(§3) Virus stocks were prepared as described above. Drug susceptibility assays were performed using the single- and multiple-replication-cycle assays also described above.

[13] = tested on: HIV-1 AZT9 (M41L/D67N/K70R/L210W/T215Y/K219Q); assay: microbe, parasite or virus in culture; type: cell-based; settings: Human immunodeficiency virus 1; P4/R5 cells, mean ± standard deviation
Method: as §2, §3

[14] = tested on: HIV-1 K65R; assay: microbe, parasite or virus in culture; type: cell-based; settings: Human immunodeficiency virus 1; P4/R5 cells, mean ± standard deviation
Method: as §2, §3

[15] = tested on: HIV-1 M184V; assay: microbe, parasite or virus in culture; type: cell-based; settings: Human immunodeficiency virus 1; P4/R5 cells, mean ± standard deviation
Method: as §2, §3

[16] = tested on: HIV-1 AZT3 (M41L/L210W/T215Y); assay: microbe, parasite or virus in culture; type: cell-based; settings: Human immunodeficiency virus 1; P4/R5 cells, mean ± standard deviation
Method: as §2, §3

[17] = tested on: HIV-1 T69SSS (M41L/T69SSS/L210W/T215Y); assay: microbe, parasite or virus in culture; type: cell-based; settings: Human immunodeficiency virus 1, P4/R5, P4/R5 cells, mean ± standard deviation
Method: as §2, §3

[18] = tested on: HIV-1 L74V; assay: microbe, parasite or virus in culture; type: cell-based; settings: Human immunodeficiency virus 1; P4/R5 cells, mean ± standard deviation
Method: as §2, §3

[19] = tested on: HIV-1 Q151Mc (A62V/V75I/F77L/F116Y/Q151M); assay: microbe, parasite or virus in culture; type: cell-based; settings: Human immunodeficiency virus 1, P4/R5, P4/R5 cells, mean ± standard deviation
Method: as §2, §3

[20] = tested on: HIV-1 AZT2 (D67N/K70R/T215F/K219Q); assay: microbe, parasite or virus in culture; type: cell-based; settings: Human immunodeficiency virus 1; P4/R5 cells, mean ± standard deviation
Method: as §2, §3

[21] = tested on: WT (LAI) HIV-1; assay: Single cycle assay in P4/R5 cells, WT HIV-1; type: cell-based; settings: Human immunodeficiency virus 1, P4/R5, read-out: EC50 WT (LAI), P4/R5 cells, mean ± standard deviation
Method: as §2, §3

Compound: C=CCN(C)c1nc(N)nc2c1ncn2[C@H]1CC(N=[N+]=[N-])[C@@H](CO)O1 (stereo partly shown) [drawing 48]
IC50 [1]: 27 µM
IC50 [2]: 32 µM
EC50 [3]: > 100 µM
EC90 [3]: > 100 µM
IC50 [4]: > 100 µM
EC50 [5]: > 10 µM
EC90 [5]: > 10 µM

level of unchanged drug ([6]; MT-2 cells treated with drug for 30 min): Negligible levels of 6415 were detected
AZG-TP levels compared with AZG treatment ([6]; MT-2 cells, 4 hr at 50 μM): higher
Deamination in 7 min (0.002 units Adenosine Deaminase) ([7]; 7 min): 12.81 ± 1.57%
Deamination in 120 min (0.2 units Adenosine Deaminase) ([7]; 120 min): 240.53 ± 5.86%
nucleotides detected (LC/MS) [8]: detection of RFS-457-TP
Compound: [N-]=[N+]=N[C@H]1C[C@H](n2cnc3c(Cl)nc(N)nc32)O[C@@H]1CO [Compound 68, ((2S,3S,5R)-5-(2-amino-6-chloro-9H-purin-9-yl)-3-azidotetrahydrofuran-2-yl)methanol]
species not detected (LC/MS) [8]: Neither Compound 6415 nor its phosphates were detected

Compound: [N-]=[N+]=NC1C[C@H](n2cnc3c(NC4CC4)nc(N)nc32)O[C@@H]1CO (stereo partly shown) [drawing 56]
IC50 [1]: > 100 µM
IC50 ([2]; Table 5): > 100 µM
EC50 [3]: > 100 µM
EC90 [3]: > 100 µM
IC50 [4]: > 100 µM
EC50 [5]: > 10 µM
EC90 [5]: > 10 µM

Compound: CN(C)c1nc(N)nc2c1ncn2[C@H]1CC(N=[N+]=[N-])[C@@H](CO)O1 (stereo partly shown) [drawing 53]
IC50 [1]: > 100 µM
IC50 ([2]; Table 5): > 100 µM
EC50 [3]: > 100 µM
EC90 [3]: > 100 µM
IC50 [4]: > 100 µM
EC50 [5]: > 10 µM
EC90 [5]: > 10 µM

Compound: Nc1ccn([C@H]2CS[C@@H](CO)O2)c(=O)n1 [Compound 3TC, (−)-2′,3′-dideoxy-3′-thiacytidine, reference compound]
EC90 [9]: < 10 µM
IC50 [1]: > 100 µM
IC50 ([2]; Table 5): > 100 µM
IC50 [4]: > 100 µM
EC50 [10]: 0.075 µM
EC90 [10]: 0.42 µM

Compound: [N-]=[N+]=NC1C[C@H](n2cnc3c(NCCCCCO)nc(N)nc32)O[C@@H]1CO (stereo partly shown) [drawing 49]
IC50 [1]: > 100 µM
IC50 ([2]; Table 5): > 100 µM
EC50 [3]: > 100 µM
EC90 [3]: > 100 µM
IC50 [4]: > 100 µM
EC50 [5]: > 10 µM
EC90 [5]: > 10 µM

Compound: Cc1cn([C@H]2C[C@H](N=[N+]=[N-])[C@@H](CO)O2)c(=O)[nH]c1=O [AZT, 3′-azido-3′-deoxythymidine, reference compound]
EC90 [11]: 0.02 µM
EC50 [12]: > 90 µM
EC50 [13]: > 90 µM
EC50 [14]: 0.163 ± 0.06 µM
EC50 [15]: 0.095 ± 0.04 µM
EC50 [16]: 2.85 ± 0.88 µM
EC50 [17]: > 90 µM
EC50 [18]: 0.156 ± 0.03 µM
EC50 [19]: > 90 µM
EC50 [20]: 11.1 ± 4.3 µM
IC50 [4]: > 100 µM
EC50 [21]: 0.126 ± 0.04 µM
EC50 [10]: 0.0076 µM
EC90 [10]: 0.064 µM

concentration at which phosphorylation reaches steady state ([6]; MT-2, four different concentrations): 30 µM
major metabolite [8]: RFS-457-TP as the major metabolite
Compound: [N-]=[N+]=NC1C[C@H](n2cnc3c(O)nc(N)nc32)O[C@@H]1CO (stereo partly shown) [Compound 56, 3′-Azido-2′,3′-dideoxyguanosine]

Compound: C=CCNc1nc(N)nc2c1ncn2[C@H]1CC(N=[N+]=[N-])[C@@H](CO)O1 (stereo partly shown) [drawing 47]
IC50 [1]: > 100 µM
IC50 ([2]; Table 5): > 100 µM
EC50 [3]: > 100 µM
EC90 [3]: > 100 µM
IC50 [4]: > 100 µM
EC50 [5]: > 10 µM
EC90 [5]: > 10 µM

Compound: CC(C)(CO)Nc1nc(N)nc2c1ncn2[C@H]1CC(N=[N+]=[N-])[C@@H](CO)O1 (stereo partly shown) [drawing 50]
IC50 [1]: > 100 µM
IC50 ([2]; Table 5): > 100 µM
EC50 [3]: > 100 µM
EC90 [3]: > 100 µM
IC50 [4]: > 100 µM
EC50 [5]: > 10 µM
EC90 [5]: > 10 µM

Compound: COCCNc1nc(N)nc2c1ncn2[C@H]1CC(N=[N+]=[N-])[C@@H](CO)O1 (stereo partly shown) [drawing 58]
IC50 [1]: > 100 µM
IC50 ([2]; Table 5): > 100 µM
IC50 [4]: > 100 µM
EC50 [5]: > 10 µM
EC90 [5]: > 10 µM

Compound: CC(CO)Nc1nc(N)nc2c1ncn2[C@H]1CC(N=[N+]=[N-])[C@@H](CO)O1 (stereo partly shown) [drawing 51]
IC50 [1]: > 100 µM
IC50 ([2]; Table 5): > 100 µM
EC50 [3]: > 100 µM
EC90 [3]: > 100 µM
IC50 [4]: > 100 µM
EC50 [5]: > 10 µM
EC90 [5]: > 10 µM
